US20110039721A1, “METHOD FOR PREDICTION ABOUT CARCINOGENICITY OF SUBSTANCE IN RODENT” (Chemicals Evaluation and Research Institute, priority 2007, published 2011)
Where a name gives a salt, the structure may show the parent alone. Read-outs that look alike come from different tables or passages of the source.

Columns and labels:
[1] = tested on: liver; settings: in vivo; cited from earlier work
[2] = tested on: rodent; settings: cited from earlier work
[3] = tested on: mRNA expressed from the genes (A) to (D) in rat liver; test: Behavior of genes (mRNA expression level, oligo-DNA microarray) in rat liver after 28-day oral administration; format: in vivo
Method in brief: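 Oral gavage, once daily × 28 days; male F344 SPF rats, 5 wk, n=4/group; vehicle controls given equal solvent volume. Liver excised day 28, total RNA purified. Significance: ≥1.5× or ≤1/1.5 of vehicle, direction concordant with other carcinogens.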

[4] = Gene No. 154, Rn.185941, group (C)
[5] = Gene No. 533, Rn.106184, group (C)
[6] = Gene No. 725, Rn.108075, group (C)
[7] = Gene No. 813, Rn.201760, group (C)
[8] = Gene No. 893, Rn.164817, group (C)
[9] = Gene No. 1119, Rn.9757, group (C)
[10] = Gene No. 1131, Rn.144946, group (C)
[11] = Gene No. 1163, Rn.11766, group (C)
[12] = Gene No. 1334, Rn.120914, group (C)
[13] = Gene No. 1494, Rn.1430, group (B)
[14] = Gene No. 1562, Rn.14744, group (C)
[15] = Gene No. 1741, Rn.1647, group (C)
[16] = Gene No. 1993, Rn.18728, group (C)
[17] = Gene No. 2026, Rn.167075, group (A)
[18] = Gene No. 2045, Rn.19329, group (B)
[19] = Gene No. 2203, Rn.21240, group (B)
[20] = Gene No. 2494, Rn.23969, group (C)
[21] = Gene No. 2546, Rn.24561, group (C)
[22] = Gene No. 3776, Rn.43232, group (C)
[23] = Gene No. 3929, Rn.4620, group (C)
[24] = Gene No. 4095, Rn.119024, group (C)
[25] = Gene No. 4218, Rn.167075, group (A)
[26] = Gene No. 4846, Rn.144554, group (A)
[27] = Gene No. 4973, Rn.118529, group (C)
[28] = Gene No. 5600, Rn.9836, group (A)
[29] = Gene No. 5634, Rn.9862, group (C)
[30] = Gene No. 5726, Rn.9939, group (D)
[31] = Gene No. 5878, Rn.143213, group (C)
[32] = Gene No. 6026, Rn.167685, group (C)
[33] = Gene No. 6182, Rn.5834, group (A)
[34] = Gene No. 6303, Rn.123063, group (C)
[35] = Gene No. 6620, Rn.120914, group (C)
[36] = Gene No. 6742, Rn.9779, group (C)
[37] = (C), Unigene Rn.120914, defined direction +, rat liver, oral once daily 28 days

## CN(C)CCN(Cc1cccs1)c1ccccn1 [TS053, Methapyrilene HCl]
[1]
  Liver carcinogenicity: Cr+
[2]; in vivo
  Carcinogenicity: C+

## O=[N+]([O-])c1ccc2ccc3cccc4ccc1c2c34 [TS064, 1-Nitropyrene]
[3]; [4]
  Behavior of gene caused by administration of chemical substance: −
[3]; [5]
  Behavior of gene caused by administration of chemical substance: −
[3]; [6]
  Behavior of gene caused by administration of chemical substance: −
[3]; [7]
  Behavior of gene caused by administration of chemical substance: −
[3]; [8]
  Behavior of gene caused by administration of chemical substance: −
[3]; [9]
  Behavior of gene caused by administration of chemical substance: −
[3]; [10]
  Behavior of gene caused by administration of chemical substance: −
[3]; [11]
  Behavior of gene caused by administration of chemical substance: −
[3]; [12]
  Behavior of gene caused by administration of chemical substance: −
[3]; [13]
  Behavior of gene caused by administration of chemical substance: −
[3]; [14]
  Behavior of gene caused by administration of chemical substance: −
[3]; [15]
  Behavior of gene caused by administration of chemical substance: −
[3]; [16]
  Behavior of gene caused by administration of chemical substance: −
[3]; [17]
  Behavior of gene caused by administration of chemical substance: −
[3]; [18]
  Behavior of gene caused by administration of chemical substance: −
[3]; [19]
  Behavior of gene caused by administration of chemical substance: +
[3]; [20]
  Behavior of gene caused by administration of chemical substance: −
[3]; [21]
  Behavior of gene caused by administration of chemical substance: −
[3]; [22]
  Behavior of gene caused by administration of chemical substance: −
[3]; [23]
  Behavior of gene caused by administration of chemical substance: −
[3]; [24]
  Behavior of gene caused by administration of chemical substance: −
[3]; [25]
  Behavior of gene caused by administration of chemical substance: −
[3]; [26]
  Behavior of gene caused by administration of chemical substance: −
[3]; [27]
  Behavior of gene caused by administration of chemical substance: −
[3]; [28]
  Behavior of gene caused by administration of chemical substance: −
[3]; [29]
  Behavior of gene caused by administration of chemical substance: −
[3]; [30]
  Behavior of gene caused by administration of chemical substance: −
[3]; [31]
  Behavior of gene caused by administration of chemical substance: −
[3]; [32]
  Behavior of gene caused by administration of chemical substance: −
[3]; [33]
  Behavior of gene caused by administration of chemical substance: −
[3]; [34]
  Behavior of gene caused by administration of chemical substance: −
[3]; [35]
  Behavior of gene caused by administration of chemical substance: −
[3]; [36]
  Behavior of gene caused by administration of chemical substance: −
[2]; classification C+/C−
  Carcinogenicity: C+

## CC(N)=O [TS067, Acetamide]
[3]; (A), Unigene Rn.144554, defined direction +, rat liver, oral once daily 28 days
  Behavior of gene caused by administration of chemical substance, Gene No. 4846: +
[3]; (A), Unigene Rn.167075, defined direction +, rat liver, oral once daily 28 days, significant = 1.5 times or more or 1/1.5 or less of control
  Behavior of gene caused by administration of chemical substance, Gene No. 4218: −
[3]; (A), Unigene Rn.167075, defined direction −, rat liver, oral once daily 28 days
  Behavior of gene caused by administration of chemical substance, Gene No. 2026: +
[3]; (A), Unigene Rn.5834, defined direction +, rat liver, oral once daily 28 days
  Behavior of gene caused by administration of chemical substance, Gene No. 6182: −
[3]; (A), Unigene Rn.9836, defined direction +, rat liver, oral once daily 28 days
  Behavior of gene caused by administration of chemical substance, Gene No. 5600: −
[3]; (B), Unigene Rn.1430, defined direction −, rat liver, oral once daily 28 days
  Behavior of gene caused by administration of chemical substance, Gene No. 1494: −
[3]; (B), Unigene Rn.19329, defined direction +, rat liver, oral once daily 28 days
  Behavior of gene caused by administration of chemical substance, Gene No. 2045: −
[3]; (B), Unigene Rn.21240, defined direction +, rat liver, oral once daily 28 days
  Behavior of gene caused by administration of chemical substance, Gene No. 2203: −
[3]; (C), Unigene Rn.106184, defined direction +, rat liver, oral once daily 28 days
  Behavior of gene caused by administration of chemical substance, Gene No. 533: +
[3]; (C), Unigene Rn.108075, defined direction −, rat liver, oral once daily 28 days
  Behavior of gene caused by administration of chemical substance, Gene No. 725: −
[3]; (C), Unigene Rn.11766, defined direction +, rat liver, oral once daily 28 days
  Behavior of gene caused by administration of chemical substance, Gene No. 1163: −
[3]; (C), Unigene Rn.118529, defined direction −, rat liver, oral once daily 28 days
  Behavior of gene caused by administration of chemical substance, Gene No. 4973: −
[3]; (C), Unigene Rn.119024, defined direction −, rat liver, oral once daily 28 days
  Behavior of gene caused by administration of chemical substance, Gene No. 4095: −
[3]; [37]
  Behavior of gene caused by administration of chemical substance, Gene No. 1334: −
  Behavior of gene caused by administration of chemical substance, Gene No. 6620: −
[3]; (C), Unigene Rn.123063, defined direction −, rat liver, oral once daily 28 days
  Behavior of gene caused by administration of chemical substance, Gene No. 6303: +
[3]; (C), Unigene Rn.143213, defined direction −, rat liver, oral once daily 28 days
  Behavior of gene caused by administration of chemical substance, Gene No. 5878: −
[3]; (C), Unigene Rn.144946, defined direction −, rat liver, oral once daily 28 days
  Behavior of gene caused by administration of chemical substance, Gene No. 1131: −
[3]; (C), Unigene Rn.14744, defined direction −, rat liver, oral once daily 28 days
  Behavior of gene caused by administration of chemical substance, Gene No. 1562: −
[3]; (C), Unigene Rn.1647, defined direction −, rat liver, oral once daily 28 days
  Behavior of gene caused by administration of chemical substance, Gene No. 1741: −
[3]; (C), Unigene Rn.164817, defined direction +, rat liver, oral once daily 28 days
  Behavior of gene caused by administration of chemical substance, Gene No. 893: −
[3]; (C), Unigene Rn.167685, defined direction −, rat liver, oral once daily 28 days
  Behavior of gene caused by administration of chemical substance, Gene No. 6026: −
[3]; (C), Unigene Rn.185941, defined direction −, rat liver, oral once daily 28 days
  Behavior of gene caused by administration of chemical substance, Gene No. 154: +
[3]; (C), Unigene Rn.18728, defined direction −, rat liver, oral once daily 28 days
  Behavior of gene caused by administration of chemical substance, Gene No. 1993: −
[3]; (C), Unigene Rn.201760, defined direction +, rat liver, oral once daily 28 days
  Behavior of gene caused by administration of chemical substance, Gene No. 813: −
[3]; (C), Unigene Rn.23969, defined direction +, rat liver, oral once daily 28 days
  Behavior of gene caused by administration of chemical substance, Gene No. 2494: −
[3]; (C), Unigene Rn.24561, defined direction −, rat liver, oral once daily 28 days
  Behavior of gene caused by administration of chemical substance, Gene No. 2546: −
[3]; (C), Unigene Rn.43232, defined direction −, rat liver, oral once daily 28 days
  Behavior of gene caused by administration of chemical substance, Gene No. 3776: −
[3]; (C), Unigene Rn.4620, defined direction +, rat liver, oral once daily 28 days
  Behavior of gene caused by administration of chemical substance, Gene No. 3929: −
[3]; (C), Unigene Rn.9757, defined direction +, rat liver, oral once daily 28 days
  Behavior of gene caused by administration of chemical substance, Gene No. 1119: −
[3]; (C), Unigene Rn.9779, defined direction +, rat liver, oral once daily 28 days
  Behavior of gene caused by administration of chemical substance, Gene No. 6742: −
[3]; (C), Unigene Rn.9862, defined direction −, rat liver, oral once daily 28 days
  Behavior of gene caused by administration of chemical substance, Gene No. 5634: −
[3]; (D), Unigene Rn.9939, defined direction −, rat liver, oral once daily 28 days
  Behavior of gene caused by administration of chemical substance, Gene No. 5726: −
[2]; in vivo
  Carcinogenicity: C+

## Cc1ccccc1[N+](=O)[O-] [TS087, o-Nitrotoluene]
[3]; [4]
  Behavior of gene caused by administration of chemical substance: −
[3]; [5]
  Behavior of gene caused by administration of chemical substance: +
[3]; [6]
  Behavior of gene caused by administration of chemical substance: +
[3]; [7]
  Behavior of gene caused by administration of chemical substance: −
[3]; [8]
  Behavior of gene caused by administration of chemical substance: −
[3]; [9]
  Behavior of gene caused by administration of chemical substance: −
[3]; [10]
  Behavior of gene caused by administration of chemical substance: −
[3]; [11]
  Behavior of gene caused by administration of chemical substance: −
[3]; [12]
  Behavior of gene caused by administration of chemical substance: −
[3]; [13]
  Behavior of gene caused by administration of chemical substance: +
[3]; [14]
  Behavior of gene caused by administration of chemical substance: −
[3]; [15]
  Behavior of gene caused by administration of chemical substance: −
[3]; [16]
  Behavior of gene caused by administration of chemical substance: −
[3]; [17]
  Behavior of gene caused by administration of chemical substance: +
[3]; [18]
  Behavior of gene caused by administration of chemical substance: −
[3]; [19]
  Behavior of gene caused by administration of chemical substance: −
[3]; [20]
  Behavior of gene caused by administration of chemical substance: −
[3]; [21]
  Behavior of gene caused by administration of chemical substance: −
[3]; [22]
  Behavior of gene caused by administration of chemical substance: −
[3]; [23]
  Behavior of gene caused by administration of chemical substance: −
[3]; [24]
  Behavior of gene caused by administration of chemical substance: −
[3]; [25]
  Behavior of gene caused by administration of chemical substance: +
[3]; [26]
  Behavior of gene caused by administration of chemical substance: +
[3]; [27]
  Behavior of gene caused by administration of chemical substance: +
[3]; [28]
  Behavior of gene caused by administration of chemical substance: +
[3]; [29]
  Behavior of gene caused by administration of chemical substance: −
[3]; [30]
  Behavior of gene caused by administration of chemical substance: −
[3]; [31]
  Behavior of gene caused by administration of chemical substance: −
[3]; [32]
  Behavior of gene caused by administration of chemical substance: −
[3]; [33]
  Behavior of gene caused by administration of chemical substance: +
[3]; [34]
  Behavior of gene caused by administration of chemical substance: +
[3]; [35]
  Behavior of gene caused by administration of chemical substance: −
[3]; [36]
  Behavior of gene caused by administration of chemical substance: −
[2]; in vivo
  Carcinogenicity: C+
